Results published in patent US20080102127A1, “HYBRID LIPID-POLYMER NANOPARTICULATE DELIVERY COMPOSITION” (priority 2006, published 2008).

System: Escherichia Coli (strain O157)
Test: Sepsis model induced in mice by Escherichia Coli (strain O157)
Type: in vivo
Details: BALB/c mice, E. coli O157 2.5×10^8 cells i.p.; single intravenous injection 25 mg/kg (antibiotic base) 4 h post infection; n=10
Protocol: Antibacterial efficacy of antibiotics in hybrid polymer-lipid nanoparticles was evaluated “in vivo” in a sepsis model, induced in mice (BALB/C line) by Escherichia Coli (strain O157). E. Coli O157 strain was chosen as a model infection as one of the most common pathogens that cause nosocomial infections.
Female BALB/c mice 6-8 weeks old were infected intraperitoneally with E. coli (strain O157) at a dose of 2.5×10^8 cells off E. coli per mouse.
The infected animals were randomized in groups (n=10) and received one of the following formulations: […]
Streptomycin formulations: 1) Saline; 2) Streptomycin solution in saline, 5 mg/ml 3) Streptomycin in hybrid polymer-lipid nanoparticles (Example 30 in Table 1), 5 mg/ml.
Gentamycin formulations: 1) Saline 2) Gentamycin solution in saline, 2.5 mg/ml; 3) Gentamycin in hybrid polymer-lipid nanoparticles (Example 24 in Table 1), 2.5 mg/ml.
The formulations were injected intraperitoneally (Streptomycin) or intravenously (Gentamycin) in the doses of 1×25 mg/kg (calculated by antibiotic base) 4 h post infection.

Substance: Gentamycin [Gentamycin solution in saline]
- survival of the animals at Day 10: 20%
